# pEC50: −log10 of the molar value.
# Tests used:
# Assay type in all cases: cell-based
# yellow fever virus (YFV) = experiment: microbe, parasite or virus in culture; conditions: Vero, read-out: EC50 (Vero cells) YFV
# Sindbis Virus (SINV) = experiment: Antiviral activity against Sindbis virus in Vero cells; conditions: read-out: EC50 (Vero cells) SINV, Vero cells, viral induced cytopathic effect
# [1] = system: human cytomegalovirus (HCMV Davis strain); experiment: Antiviral activity against HCMV Davis in HEL cells; conditions: Human betaherpesvirus 5, HEL, read-out: EC50 (HEL cells) HCMV Davis
# [2] = system: varicella-zoster virus (VZV TK+); experiment: microbe, parasite or virus in culture; conditions: Human alphaherpesvirus 3, HEL, read-out: EC50 (HEL cells) VZV TK+
compound,measurement,setting,value
COc1c(C)c2c(c(O)c1C/C=C(\C)CCC(=O)O)C(=O)OC2 [Mycophenolic acid],pEC50,yellow fever virus (YFV),5.40
same,pEC50,Sindbis Virus (SINV),5.40
Nc1ccn(C[C@@H](CO)OCP(=O)(O)O)c(=O)n1 [Cidofovir],pEC50,[1],6.12
O=c1[nH]c(=O)n([C@H]2C[C@H](O)[C@@H](CO)O2)cc1/C=C/Br [Brivudin],pEC50,[2],7.92
"C/C(=C\CP(=O)(N[C@@H](C)C(=O)OC(C)C)Oc1cccc2ccccc12)Cn1cc(C)c(=O)[nH]c1=O (stereo partly drawn) [E-8a, (E)-N^1-(4′-O-(1-Naphthyl)-(isopropyloxy-L-alanine)-phosphinyl-2′-methyl-but-2′-enyl)thymine]",pEC50,[2],4.35
